For assay [1], the target named is Neuronal acetylcholine receptor; alpha3/beta4 (Rattus norvegicus, UniProt P04757+P12392). The assay can be described thus: Displacement of [3H]EB from rat nAChR alpha3beta4 expressed in HEK293 cell membranes by liquid scintillation counting. Background: Loss of bound radioactivity is the signal in a displacement assay; it reports binding, not function.
The target of assay [2] is Neuronal acetylcholine receptor; alpha4/beta2 (Rattus norvegicus, UniProt P09483+P12390). The assay can be described thus: Displacement of [3H]EB from rat nAChR alpha4beta2 expressed in HEK293 cell membranes by liquid scintillation counting.
The target in assay [3] is T1, Neuronal acetylcholine receptor subunit alpha-7 (Rattus norvegicus, UniProt Q05941). As to the kind of experiment: Agonist activity at rat nAChR alpha7 expressed in GH4C1 cells by fluorescent calcium assay. The format is cell-based, GH4-C1.
The target of assay [4] is T1, Neuronal acetylcholine receptor subunit alpha-7. The assay can be described thus: Displacement of [3H]EB from rat nAChR alpha7 expressed in HEK293 cell membranes by liquid scintillation counting.

SMILES strings stand for the structures.

In general, Ki refers to a measure of affinity in units of concentration, obtained from inhibition or displacement. For orientation: EC50 means the concentration needed to bring the measured effect to its halfway point.

Sequence of Neuronal acetylcholine receptor; alpha4/beta2 (P09483 whole entry): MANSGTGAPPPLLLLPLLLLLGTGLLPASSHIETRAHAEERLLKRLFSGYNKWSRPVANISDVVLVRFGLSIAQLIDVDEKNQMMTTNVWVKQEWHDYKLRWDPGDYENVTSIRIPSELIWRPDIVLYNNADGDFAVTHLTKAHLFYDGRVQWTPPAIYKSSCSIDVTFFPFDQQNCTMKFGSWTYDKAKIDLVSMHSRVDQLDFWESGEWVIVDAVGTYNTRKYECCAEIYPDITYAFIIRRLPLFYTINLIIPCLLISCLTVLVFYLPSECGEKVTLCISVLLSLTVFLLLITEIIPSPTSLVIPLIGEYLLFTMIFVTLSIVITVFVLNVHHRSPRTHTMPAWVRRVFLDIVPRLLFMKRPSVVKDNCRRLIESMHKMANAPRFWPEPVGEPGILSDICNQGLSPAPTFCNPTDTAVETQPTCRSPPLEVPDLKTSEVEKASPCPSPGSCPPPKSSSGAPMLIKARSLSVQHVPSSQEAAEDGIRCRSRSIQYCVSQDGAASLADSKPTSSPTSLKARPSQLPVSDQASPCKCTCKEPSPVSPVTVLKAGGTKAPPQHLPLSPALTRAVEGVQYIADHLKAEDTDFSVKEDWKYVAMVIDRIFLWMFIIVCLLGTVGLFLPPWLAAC
Sequence of Neuronal acetylcholine receptor; alpha4/beta2 (P12390 whole entry): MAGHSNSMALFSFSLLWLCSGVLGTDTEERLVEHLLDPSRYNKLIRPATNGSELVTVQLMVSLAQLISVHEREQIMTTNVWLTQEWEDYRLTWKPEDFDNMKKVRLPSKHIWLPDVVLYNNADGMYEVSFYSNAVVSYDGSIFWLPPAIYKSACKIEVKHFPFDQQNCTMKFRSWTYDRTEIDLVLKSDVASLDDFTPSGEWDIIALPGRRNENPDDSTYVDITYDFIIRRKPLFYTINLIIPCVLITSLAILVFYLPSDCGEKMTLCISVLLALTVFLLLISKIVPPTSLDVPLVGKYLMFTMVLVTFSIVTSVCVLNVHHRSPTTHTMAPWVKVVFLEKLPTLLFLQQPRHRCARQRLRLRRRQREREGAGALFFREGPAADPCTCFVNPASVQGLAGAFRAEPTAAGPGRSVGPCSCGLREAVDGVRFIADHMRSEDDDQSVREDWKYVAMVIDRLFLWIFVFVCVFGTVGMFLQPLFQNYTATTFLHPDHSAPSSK
T1 sequence (Q05941 whole entry): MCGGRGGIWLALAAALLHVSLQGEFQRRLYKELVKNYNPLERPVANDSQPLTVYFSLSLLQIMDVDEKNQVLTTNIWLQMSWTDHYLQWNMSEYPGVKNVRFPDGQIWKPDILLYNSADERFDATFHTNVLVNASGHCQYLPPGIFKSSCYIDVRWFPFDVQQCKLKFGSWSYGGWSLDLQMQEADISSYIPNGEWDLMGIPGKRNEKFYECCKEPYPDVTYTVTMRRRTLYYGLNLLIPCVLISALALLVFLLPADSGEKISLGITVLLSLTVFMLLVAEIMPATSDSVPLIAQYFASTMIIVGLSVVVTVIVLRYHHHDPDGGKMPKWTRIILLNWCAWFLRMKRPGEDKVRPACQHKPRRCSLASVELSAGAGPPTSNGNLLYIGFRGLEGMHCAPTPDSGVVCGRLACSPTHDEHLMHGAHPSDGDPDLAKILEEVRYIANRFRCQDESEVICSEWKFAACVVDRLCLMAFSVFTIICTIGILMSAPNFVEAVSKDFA
Sequence of Neuronal acetylcholine receptor; alpha3/beta4 (P04757 whole entry): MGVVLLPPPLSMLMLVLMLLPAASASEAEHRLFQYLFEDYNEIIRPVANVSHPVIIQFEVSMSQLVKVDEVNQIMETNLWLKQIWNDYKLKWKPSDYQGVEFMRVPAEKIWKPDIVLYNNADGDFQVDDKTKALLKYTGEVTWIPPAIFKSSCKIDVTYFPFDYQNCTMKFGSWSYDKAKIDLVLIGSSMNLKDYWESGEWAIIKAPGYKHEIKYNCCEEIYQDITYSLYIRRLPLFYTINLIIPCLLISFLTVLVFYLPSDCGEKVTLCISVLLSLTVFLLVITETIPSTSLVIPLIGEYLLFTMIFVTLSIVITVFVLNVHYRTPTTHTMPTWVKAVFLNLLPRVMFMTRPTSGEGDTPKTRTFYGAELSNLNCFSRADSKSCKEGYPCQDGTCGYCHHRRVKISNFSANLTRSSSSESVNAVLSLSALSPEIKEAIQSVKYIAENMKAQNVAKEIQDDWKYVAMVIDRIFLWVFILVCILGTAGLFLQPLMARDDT
Sequence of Neuronal acetylcholine receptor; alpha3/beta4 (P12392 whole entry): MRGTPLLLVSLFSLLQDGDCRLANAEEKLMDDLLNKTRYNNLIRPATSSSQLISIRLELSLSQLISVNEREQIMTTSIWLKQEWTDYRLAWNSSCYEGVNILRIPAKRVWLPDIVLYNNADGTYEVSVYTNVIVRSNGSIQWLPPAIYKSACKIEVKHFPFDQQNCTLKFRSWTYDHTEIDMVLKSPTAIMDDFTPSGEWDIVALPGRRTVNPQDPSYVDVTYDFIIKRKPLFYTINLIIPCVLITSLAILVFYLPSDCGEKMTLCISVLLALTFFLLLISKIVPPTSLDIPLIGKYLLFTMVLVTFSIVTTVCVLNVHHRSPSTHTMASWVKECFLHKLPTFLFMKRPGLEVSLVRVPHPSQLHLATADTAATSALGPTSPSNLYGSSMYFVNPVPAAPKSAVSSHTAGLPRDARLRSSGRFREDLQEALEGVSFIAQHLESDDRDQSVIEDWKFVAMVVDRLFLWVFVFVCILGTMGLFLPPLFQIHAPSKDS

Turning to `c1cncc(-c2ccc(-n3nnnc3CCCCN3CCOCC3)cc2)c1`, the Ki entry in assay [1] (hek293) was “Not Active”; in assay [2] (hek293) it was “Not Active”; in assay [4], 216 µM. For the same compound, the EC50 entry in assay [3] (gh4-c1) is given as “Not Active”.

In the case of `c1cncc(-c2ccc(-c3nnnn3CCCCN3CCOCC3)cc2)c1`, the Ki was above 1000 µM in assay [1] (read-out: Ki), “Not Active” in assay [2] (hek293) and 165 µM in assay [4]. In addition, in assay [3] (gh4-c1), the EC50 result was “Not Active”.

In the case of `c1ccc(-c2ccc(-c3nnnn3CCCCN3CCOCC3)cc2)cc1`, the inhibitory constant (Ki) in assay [1] (read-out: Ki) was above 100 µM; in assay [2] (hek293), “Not Active”; in assay [4], 156 µM. For the same compound, the EC50 result in assay [3] (gh4-c1) is given as “Not Active”.

As for `O=C(NCCCCN1CCOCC1)c1ccc(-c2ccccc2)cc1`, the Ki in assay [1] (read-out: Ki) is above 10 µM; in assay [2] (read-out: Ki) it was above 10 µM; in assay [4] it was 1.8 µM. Moreover, the EC50 in assay [3] (read-out: EC50) came out at 2.37 µM.

Regarding `O=C(CCCCN1CCOCC1)Nc1ccc(-c2ccccc2)cc1`, the figures for the Ki in assay [1] (read-out: Ki), in assay [2] (read-out: Ki) and in assay [4] were above 10 µM, above 10 µM and 2.3 µM, respectively. Moreover, in assay [3] (read-out: EC50), the 50% effective concentration (EC50) was 1.75 µM.

`O=C(NCCCCN1CCOCC1)c1ccc(-c2cccnc2)cc1`: the Ki in assay [1] (read-out: Ki) was above 10 µM; in assay [2] (read-out: Ki), above 10 µM; in assay [4], 11 µM. In addition, the EC50 result in assay [3] (gh4-c1) was “Not Active”.

On to `c1ccc(-c2ccc(-n3nnnc3CCCCN3CCOCC3)cc2)cc1`, for which the Ki is above 1000 µM in assay [1] (read-out: Ki), “Not Active” in assay [2] (hek293) and 236 µM in assay [4]. For the same compound, in assay [3] (gh4-c1), the EC50 result is “Not Active”.

For the compound `O=C(CCCCN1CCOCC1)Nc1ccc(-c2cccnc2)cc1`, the Ki in assay [1] (read-out: Ki) is above 10 µM; in assay [2] (read-out: Ki), above 10 µM; in assay [4], 0.67 µM. The EC50 in assay [3] (read-out: EC50) came out at 0.86 µM.

For the origin of these results see ChEMBL document CHEMBL3352103, “Investigations of amide bond variation and biaryl modification in analogues of α7 nAChR agonist SEN12333” (Eur J Med Chem, 2014).
